Key:
Leishmania infantum [1] = assay: Antileishmanial activity against Leishmania infantum promastigote infected in BALB/c mouse assessed as reduction in parasite burden in liver at 2.5 mg/kg, iv administered once every other day for 15 days; type: functional; set-up: scale not given: the % may be the effect or the level left; conditions: time 15 day
Leishmania infantum [2] = assay: Antileishmanial activity against Leishmania infantum promastigote infected in BALB/c mouse assessed as reduction in parasite burden in spleen at 2.5 mg/kg, iv administered once every other day for 15 days; type: functional; set-up: scale not given: the % may be the effect or the level left; conditions: time 15 day
Leishmania infantum [3] = assay: Antileishmanial activity against Leishmania infantum promastigotes BCN150; type: functional, organism-based
KB [4] = assay: Cytotoxicity against FR-knockdown human KB cells; type: functional, cell-based
KB [5] = assay: Cytotoxicity against human KB cells; type: functional, cell-based

`O=C1c2ccccc2-c2c1c1ccc([N+](=O)[O-])cc1c(=O)n2CCCN1CCOCC1` gave an Activity (Leishmania infantum [1]) greater than 80% and an Activity (Leishmania infantum [2]) greater than 80%.

`COc1cc2c3c(n(CCCN4CCOCC4)c(=O)c2cc1OC)-c1cc2c(cc1C3=O)OCO2` [INDOTECAN] was tested, and the IC50 (Leishmania infantum [3]) was 0.1 µM.

For `CCOC(c1ccc(COCC(=O)NCCOCCOCCOCCOCCOCCNC(=O)CC[C@H](NC(=O)c2ccc(NCc3cnc4nc(N)nc(O)c4n3)cc2)C(=O)O)cc1OC)n1cnc(CCn2c3c(c4ccccc4c2=O)C(=O)c2ccccc2-3)c1` (some centres not stated), the IC50 (KB [4]) was 655 µM and the IC50 (KB [5]) was 60 µM.

Molecule `NC[C@@H]1O[C@H](O[C@H]2[C@@H](O)[C@H](O[C@@H]3[C@@H](O)[C@H](N)C[C@H](N)[C@H]3O[C@H]3O[C@H](CO)[C@@H](O)[C@H](O)[C@H]3N)O[C@@H]2CO)[C@H](N)[C@@H](O)[C@@H]1O` [PAROMOMYCIN] has an IC50 (Leishmania infantum [3]) of 42.4 µM.

`CC[C@@]1(O)C(=O)OCc2c1cc1n(c2=O)Cc2cc3ccccc3nc2-1` [CAMPTOTHECIN] showed an IC50 (Leishmania infantum [3]) of 1.12 µM.

From ChEMBL document CHEMBL5226355, “Design and Synthesis of Indenoisoquinolines Targeting Topoisomerase I and Other Biological Macromolecules for Cancer Chemotherapy” (J Med Chem, 2021)
